Literature values, collected in patent US20040162333A1, “Rapid absorption selective 5-HT agonist formulations” (priority 2003, published 2004).

Details: commercially available oral triptans

Row | Time to Peak Effect (Tmax) [h] | Structure (SMILES)
1 | 1 to 3 | CN(C)CCc1c[nH]c2ccc(CS(=O)(=O)N3CCCC3)cc12 [Almotriptan (Axert), Almotriptan]
2 | 2 to 4 | CN[C@@H]1CCc2[nH]c3ccc(C(N)=O)cc3c2C1 [Frovatriptan (Frova), Frovatriptan]
3 | 2 to 3 | CNS(=O)(=O)CCc1ccc2[nH]cc(C3CCN(C)CC3)c2c1 [Naratriptan (Amerge), Naratriptan]
4 | 1 to 1.5 | CN(C)CCc1c[nH]c2ccc(Cn3cncn3)cc12 [Rizatriptan (Maxalt), Rizatriptan]
5 | 2.5 | CNS(=O)(=O)Cc1ccc2[nH]cc(CCN(C)C)c2c1 [Sumatriptan]
6 | 2 | CN(C)CCc1c[nH]c2ccc(C[C@H]3COC(=O)N3)cc12 [Zolmitriptan (Zomig), Zolmitriptan]
